Values of other authors, collected in paper PMC6311893, “Computational prediction of plasma protein binding of cyclic peptides from small molecule experimental data using sparse modeling techniques” (BMC Bioinformatics, 2018).

system: plasma protein; details: fraction bound to plasma protein; small molecule dataset, sheet 1-SM (Set Dte = test, Dtr = training); ref Ingle et al.; cited from earlier work

**Q.** With `Cc1c(N(C)C)c(=O)n(-c2ccccc2)n1C` [amidopyrine] as the molecule, how does the “PPB (fb)” value read?
**A.** 0.3

**Q.** For `CC(C)Cc1ccc(C(C)C(=O)NC(C)C(=O)O)cc1` (centres unmarked) [JMC_09], which “PPB (fb)” value is on record?
**A.** 0.96

**Q.** For `Cc1ccccc1-n1cc(C(=O)O)c(=O)c2cc(F)c(N3CCNCC3)cc21` [4a(o-CH3)], which “PPB (fb)” value is on record?
**A.** 0.37

**Q.** For `N[C@@H]1CON=C1O` [cycloserine], which “PPB (fb)” value is on record?
**A.** 0.2

**Q.** With `CN[C@@H]1CCc2[nH]c3ccc(C(N)=O)cc3c2C1` [Frovatriptan] as the molecule, how does the “PPB (fb)” value read?
**A.** 0.15

**Q.** Which “PPB (fb)” value does the source give for `CNCCCC1c2ccccc2C=Cc2ccccc21` [protriptyline] here?
**A.** 0.92

**Q.** With `CC(N/C(=N\C#N)Nc1ccncc1)C(C)(C)C` (centres unmarked) [pinacidil] as the molecule, how does the “PPB (fb)” value read?
**A.** 0.4

**Q.** For `Cc1nc2n(c(=O)c1CCN1CCC(c3noc4cc(F)ccc34)CC1)CCCC2O` (centres unmarked) [9-Hydroxyrisperidone], which “PPB (fb)” value is on record?
**A.** 0.77

same assay, conditions: fraction bound to plasma protein; small molecule dataset, sheet 1-SM, Set Dtr; ref Ingle et al.; cited from earlier work

**Q.** With `C=C1CC[C@@]2(O)[C@H]3Cc4ccc(O)c5c4[C@@]2(CCN3CC2CC2)[C@H]1O5` [Nalmefene] as the molecule, how does the “PPB (fb)” value read?
**A.** 0.36

**Q.** With `CO/N=C(\C(=O)N[C@@H]1C(=O)N2C(C(=O)O)=CCS[C@H]12)c1csc(N)n1` [Ceftizoxime] as the molecule, how does the “PPB (fb)” value read?
**A.** 0.28

**Q.** Which “PPB (fb)” value does the source give for `C[C@]12C=CC(=O)C=C1CC[C@@H]1[C@@H]2[C@@H](O)C[C@@]2(C)[C@H]1CC[C@]2(O)C(=O)CO` [Prednisolone] here?
**A.** 0.81

**Q.** With `CN(C)CCCN1c2ccccc2CCc2ccccc21` [Imipramine] as the molecule, how does the “PPB (fb)” value read?
**A.** 0.9

**Q.** With `CC1(C)O[C@@H]2[C@@H](CO[C@@]3(COS(N)(=O)=O)OC(C)(C)O[C@@H]23)O1` [topiramate] as the molecule, how does the “PPB (fb)” value read?
**A.** 0.15

**Q.** With `COc1c(N2C[C@@H]3CCCN[C@@H]3C2)c(F)cc2c(=O)c(C(=O)O)cn(C3CC3)c12` [Moxifloxacin] as the molecule, how does the “PPB (fb)” value read?
**A.** 0.45

**Q.** With `CC(C)[C@H]1CC[C@H](C(=O)N[C@H](Cc2ccccc2)C(=O)O)CC1` [Nateglinide] as the molecule, how does the “PPB (fb)” value read?
**A.** 0.98

**Q.** For `CCN(CC)CCNC(=O)c1ccc(NC(C)=O)cc1` [Acecainide (N-acetylprocainamide)], which “PPB (fb)” value is on record?
**A.** 0.1

**Q.** Which “PPB (fb)” value does the source give for `CCC(=O)O[C@]1(C(=O)SCF)[C@H](C)C[C@H]2[C@@H]3C[C@H](F)C4=CC(=O)C=C[C@]4(C)[C@@]3(F)[C@@H](O)C[C@@]21C` [Fluticasone propionate] here?
**A.** 0.89

same assay, conditions: fraction bound to plasma protein; small molecule dataset, sheet 1-SM; ref Ingle et al.; cited from earlier work

**Q.** With `COc1cnc(NS(=O)(=O)c2ccc(N)cc2)nc1` [sulfametoxydiazine] as the molecule, how does the “PPB (fb)” value read?
**A.** 0.83

**Q.** For `Cc1ncc(CO)c(CO)c1O` [pyridoxine], which “PPB (fb)” value is on record?
**A.** 0

**Q.** With `CC(Cc1ccccc1)NCCC(c1ccccc1)c1ccccc1` (centres unmarked) [prenylamine] as the molecule, how does the “PPB (fb)” value read?
**A.** 0.97

**Q.** For `C[C@@H]1CN(c2c(F)c(N)c3c(=O)c(C(=O)O)cn(C4CC4)c3c2F)C[C@H](C)N1` [Sparfloxacin], which “PPB (fb)” value is on record?
**A.** 0.45

**Q.** Which “PPB (fb)” value does the source give for `CN1CCN(CC(=O)N2c3ccccc3C(=O)Nc3cccnc32)CC1` [pirenzepine] here?
**A.** 0.1

**Q.** For `COc1c(C)c2c(c(O)c1C/C=C(\C)CCC(=O)OCCN1CCOCC1)C(=O)OC2` [Mycophenolate mofetil], which “PPB (fb)” value is on record?
**A.** 0.97

**Q.** With `COC(C(=O)NC1C(=O)N2C1SC(C)(C)C2C(=O)O)c1cccc(F)c1` (centres unmarked) [penicillin45] as the molecule, how does the “PPB (fb)” value read?
**A.** 0.65

**Q.** With `CC(CC(c1ccccc1)c1ccccc1)NC(C)(C)C` (centres unmarked) [Terodiline] as the molecule, how does the “PPB (fb)” value read?
**A.** 0.88

**Q.** With `[H]/N=C(/N)NS(=O)(=O)c1ccc(N)cc1` [sulfaguanidine] as the molecule, how does the “PPB (fb)” value read?
**A.** 0.08

**Q.** With `N=C(N)c1ccc(OCCCCCOc2ccc(C(=N)N)cc2)cc1` [pentamidine] as the molecule, how does the “PPB (fb)” value read?
**A.** 0.7

**Q.** Which “PPB (fb)” value does the source give for `Cc1c(C(C)C)c(=O)n(-c2ccccc2)n1C` [propyphenazone] here?
**A.** 0.1

**Q.** Which “PPB (fb)” value does the source give for `CCc1cc(C(N)=S)ccn1` [ethionamide] here?
**A.** 0.3

same assay, conditions: plasma; cited from earlier work

**Q.** With `Cc1nnc2n1-c1ccc(Cl)cc1C(c1ccccc1Cl)=NC2` [Triazolam] as the molecule, how does the “PPB (fb)” value read?
**A.** 0.89

**Q.** With `O=[N+]([O-])OCC(CO[N+](=O)[O-])O[N+](=O)[O-]` [nitroglycerin] as the molecule, how does the “PPB (fb)” value read?
**A.** 0.6

**Q.** With `CN1CC[C@]23CCCC[C@H]2[C@H]1Cc1ccc(O)cc13` [levorphanol] as the molecule, how does the “PPB (fb)” value read?
**A.** 0.4

**Q.** Which “PPB (fb)” value does the source give for `CCC(C)C1(CC)C(=O)NC(=O)NC1=O` (centres unmarked) [secbutabarbital] here?
**A.** 0.26

**Q.** Which “PPB (fb)” value does the source give for `CCC1(c2ccccc2)CCC(=O)NC1=O` (centres unmarked) [glutethimide] here?
**A.** 0.5

**Q.** Which “PPB (fb)” value does the source give for `CNC(C)Cc1ccc2c(c1)OCO2` (centres unmarked) [methylenedioxymethamphetamine] here?
**A.** 0.65
